We go through 58 molecules from patent US7598397B2, “Sulfonamide peri-substituted bicyclics for occlusive artery disease” (deCODE genetics ehf, priority 2004, dated 2009).

Structures are written as SMILES.

By IC50 is commonly meant the point on the concentration scale where inhibition reaches its midpoint.

This assay has as its target T1, prostanoid EP3 receptors (Homo sapiens, UniProt P43115).
T1 sequence (P43115 1-390): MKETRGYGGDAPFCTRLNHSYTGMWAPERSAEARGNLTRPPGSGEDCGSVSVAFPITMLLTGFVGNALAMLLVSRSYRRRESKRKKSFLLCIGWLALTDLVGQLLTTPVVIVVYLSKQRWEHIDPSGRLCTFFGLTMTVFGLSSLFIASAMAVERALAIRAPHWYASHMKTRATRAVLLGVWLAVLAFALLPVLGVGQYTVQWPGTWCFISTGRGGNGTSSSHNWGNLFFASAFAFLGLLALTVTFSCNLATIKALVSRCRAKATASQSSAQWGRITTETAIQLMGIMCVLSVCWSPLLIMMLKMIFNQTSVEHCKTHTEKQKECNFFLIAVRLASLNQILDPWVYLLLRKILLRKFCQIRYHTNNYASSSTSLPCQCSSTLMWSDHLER
The experiment in a line: binding on prostanoid EP3 receptors (method of Abramovitz et al.). Conditions: read-out: Activity (EP3 receptor binding, IC50 class). The protocol: The compounds of the invention were assayed for their binding on prostanoid EP3 receptors according to the method of Abramovitz et al. [Bioch. Biophys.
As to `CN1C(=O)C(Sc2ccc3ccccc3c2)c2c(OCC(=O)NS(=O)(=O)c3cc(Cl)c(Cl)s3)cccc21` (stereo not shown) [Compound P229], the 50% inhibitory concentration (IC50) is below 1000 nM.

Consider `CN1C(=O)C(Nc2ccc(F)c(F)c2)c2c(C=CC(=O)NS(=O)(=O)c3cc(Cl)c(Cl)s3)cccc21` (stereo not shown) [Compound P272], for which the IC50 was below 1000 nM.

Turning to `CC12CCCC(CCC(=O)NS(=O)(=O)c3cc(Cl)c(Cl)s3)C1N(Cc1ccc(F)c(F)c1)C(=O)C2` (stereo not shown) [Compound P415], the IC50 is below 1000 nM.

As for `Cn1cc(C=CC(=O)NS(=O)(=O)c2ccc(F)c(F)c2)c2c(Oc3ccc4ncccc4c3)cccc21` [Compound P376], the IC50 was below 1000 nM.

On to `Cn1cc(C=CC(=O)NS(=O)(=O)c2ccc(Cl)cc2)c2c(Oc3ccc4ccccc4c3)cccc21` [Compound P365], for which the IC50 is below 1000 nM.

For the molecule `Cn1cc(/C=C/C(=O)NS(=O)(=O)c2cc(Cl)c(Cl)s2)c2c(Oc3ccc(F)cc3F)cccc21` [Compound P326], the concentration for half-maximal inhibition (IC50) is below 1000 nM.

As to `Cc1cn(Cc2ccc(Cl)cc2Cl)c2c(C=CC(=O)NS(=O)(=O)c3ccccc3)cccc12` [Compound P090], the IC50 is below 1000 nM.

On to `O=C(COc1cccc2oc(=O)n(Cc3ccc4c(c3)OCO4)c12)NS(=O)(=O)c1cccs1` [Compound P050], for which the IC50 lay in the range of 1000 to 10000 nM.

In the case of `O=C(Nc1cccc2c1N(Cc1ccc3ccccc3c1)C(=O)CO2)C(=O)NS(=O)(=O)c1cccs1` [Compound P019, N-(4-Naphthalen-2-ylmethyl-3-oxo-3,4-dihydro-2H-benzo[1,4]oxazin-5-yl)-2-oxo-2-(thiophen-2-sulfonylamino)-acetamide], the concentration for half-maximal inhibition (IC50) lay in the range of 1000 to 10000 nM.

As to `Cc1cn(Cc2ccc(F)c(F)c2)c2c(/C=C/C(=O)NS(=O)(=O)c3cc(Cl)c(Cl)s3)cccc12` [Compound P135], the IC50 was below 1000 nM.

Take `CC(C)(C)OC(=O)N1CCCc2cccc(OCC(=O)NS(=O)(=O)c3cccs3)c21` [Compound P273]: the IC50 is below 1000 nM.

Consider `O=C(COc1cccc2c1N(Cc1ccc(Cl)c(Cl)c1)C(=O)CO2)NS(=O)(=O)c1cccs1` [Compound P039], for which the half-inhibitory concentration (IC50) is below 1000 nM.

For the molecule `Cn1cc(C=CC(=O)NS(=O)(=O)c2ccc(F)c(F)c2)c2c(Oc3ccc(F)cc3Cl)cccc21` [Compound P341], the IC50 is below 1000 nM.

Regarding `Cn1cc(CCC(=O)NS(=O)(=O)c2ccc(F)c(F)c2)c2c(Oc3ccc4ccccc4c3)cccc21` [Compound P362], the IC50 is below 1000 nM.

For the molecule `O=C(C=Cc1cc(F)cc2c(CO)cn(Cc3ccc(Cl)cc3Cl)c12)NS(=O)(=O)c1cc(Cl)c(Cl)s1` [Compound P397], the IC50 was below 1000 nM.

Consider `O=C(COc1cccc2[nH]cc(S(=O)(=O)c3ccc4ccccc4c3)c12)NS(=O)(=O)c1cc(F)c(F)cc1F` [Compound P237], for which the IC50 is below 1000 nM.

Consider `Cn1cc(/C=C/C(=O)NS(=O)(=O)c2cc(F)c(F)cc2F)c2c(Oc3ccc4ccccc4c3)cccc21` [Compound P343], for which the IC50 is below 1000 nM.

For the molecule `O=C(C=Cc1cccc2c1N(Cc1ccc3ccccc3c1)C(=O)C2=O)NS(=O)(=O)c1cccs1` [Compound P096], the IC50 was below 1000 nM.

As to `Cc1cn(Cc2cn3ccccc3n2)c2c(C=CC(=O)NS(=O)(=O)c3ccc(Cl)c(Cl)c3)cc(F)cc12` [Compound P406], the IC50 is below 1000 nM.

For the molecule `O=C(/C=C/c1cccc2c(CO)cn(Cc3ccc(Cl)cc3Cl)c12)NS(=O)(=O)c1cccs1` [Compound P062], the IC50 was below 1000 nM.

Consider `Cn1cc(/C=C/C(=O)NS(=O)(=O)c2cc(Cl)c(Cl)s2)c2c(Oc3ccc(Cl)cc3F)cccc21` [Compound P339], for which the 50% inhibitory concentration (IC50) is below 1000 nM.

Take `CC1(F)C(=O)N(Cc2ccc3ccccc3c2)c2c(C=CC(=O)NS(=O)(=O)c3cc(Cl)c(Cl)s3)cccc21` (stereo not shown) [Compound P161]: the IC50 was below 1000 nM.

In the case of `Cc1cn(Cc2ccc3c(c2)OCO3)c2c(/C=C/C(=O)NS(=O)(=O)c3cccs3)cccc12` [Compound P101], the half-inhibitory concentration (IC50) was below 1000 nM.

Regarding `COc1ccc(S(=O)(=O)c2c[nH]c3cccc(OCC(=O)NS(=O)(=O)c4cc(Cl)c(Cl)s4)c23)cc1OC` [Compound P170], the IC50 is below 1000 nM.

Regarding `O=C(C=Cc1cccc2c1C(=Nc1ccc3ccccc3c1)C(=O)N2)NS(=O)(=O)c1cc(Cl)c(Cl)s1` [Compound P244], the IC50 was below 1000 nM.

`Cc1cn(Cc2cccc(C(F)(F)F)c2)c2c(/C=C/C(=O)NS(=O)(=O)c3cc(Cl)c(Cl)s3)cccc12` [Compound P119]: the IC50 was below 1000 nM.

For the molecule `COc1cc(Cn2cc(C)c3cccc(/C=C/C(=O)NS(=O)(=O)c4cc(Cl)c(Cl)s4)c32)cc(OC)c1` [Compound P141], the IC50 was below 1000 nM.

For the molecule `Cn1cc(C=CC(=O)NS(=O)(=O)c2ccc(F)c(F)c2)c2c(Oc3ccc(Cl)cc3Cl)cccc21` [Compound P302], the IC50 was below 1000 nM.

Regarding `O=C(CCc1cccc2ccn(Cc3ccc4ccccc4c3)c12)NS(=O)(=O)c1cccs1` [Compound P074], the IC50 is below 1000 nM.

For `CCOC(=O)C12CCCC(C=CC(=O)NS(=O)(=O)c3cc(Cl)c(Cl)s3)=C1N(Cc1ccc(Cl)cc1Cl)C(=O)C2` (stereo not shown) [Compound P345], the IC50 is below 1000 nM.

Regarding `O=C(COc1cccc2[nH]cc(Sc3ccc(F)c(F)c3)c12)NS(=O)(=O)c1cc(Cl)c(Cl)s1` [Compound P209], the IC50 was below 1000 nM.

With `CC12CCCC(C=CC(=O)NS(=O)(=O)c3ccc(F)c(F)c3)=C1N(Cc1ccc(Cl)cc1Cl)C(=O)C2` (stereo not shown) [Compound P283], the IC50 is below 1000 nM.

Take `Cc1cn(Cc2ccc(Cl)cc2Cl)c2c(C=CC(=O)NS(=O)(=O)c3cc(Cl)c(Cl)s3)cncc12` [Compound P348]: the IC50 is below 1000 nM.

Consider `CC(C)C1C(=O)N(Cc2ccc(Cl)cc2Cl)c2c(CCC(=O)NS(=O)(=O)c3cccs3)cccc21` (stereo not shown) [Compound P093], for which the IC50 lay in the range of 1000 to 10000 nM.

With `O=C(COc1cccc2[nH]cc(Sc3ccc4ccccc4c3)c12)NS(=O)(=O)c1ccc(F)cc1` [Compound P225], the IC50 was below 1000 nM.

In the case of `CC12CCCC(C=CC(=O)NS(=O)(=O)c3cc(Cl)c(Cl)s3)=C1N(Cc1cccc(Cl)c1)C(=O)C2` (stereo not shown) [Compound P285], the IC50 was below 1000 nM.

As for `Cn1cc(C=CC(=O)NS(=O)(=O)c2ccccc2Cl)c2c(Oc3ccc4ccccc4c3)cccc21` [Compound P352], the IC50 was below 1000 nM.

Take `Cn1cc(C=CC(=O)NS(=O)(=O)c2cc(Cl)c(Cl)s2)c2c(Oc3ccc(Cl)c(Cl)c3)cccc21` [Compound P290]: the concentration for half-maximal inhibition (IC50) is below 1000 nM.

As for `Cc1ccc(S(=O)(=O)NC(=O)OCc2cccc3ccn(Cc4ccc5ccccc5c4)c23)cc1` [Compound P038], the IC50 is below 1000 nM.

As to `Cc1cn(Cc2ccccc2C#N)c2c(/C=C/C(=O)NS(=O)(=O)c3cc(Cl)c(Cl)s3)cc(F)cc12` [Compound P389], the IC50 was below 1000 nM.

As for `O=C(C=Cc1cccc2ccn(C(=O)c3ccc4ccccc4c3)c12)NS(=O)(=O)c1cccs1` [Compound P005], the IC50 is below 1000 nM.

With `O=C(C=Cc1cccc2c1N(Cc1ccc3ccccc3c1)C(=O)C2)NS(=O)(=O)c1cc(F)c(F)cc1F` [Compound P416], the IC50 was below 1000 nM.

Turning to `CC1C(=O)N(Cc2ccc3ccccc3c2)c2c(C=CC(=O)NS(=O)(=O)c3cc(Cl)c(Cl)s3)cccc21` (stereo not shown) [Compound P112], the 50% inhibitory concentration (IC50) is below 1000 nM.

For the molecule `Cn1cc(C=CC(=O)NS(=O)(=O)c2cc(F)c(F)cc2F)c2c(Oc3ccc(F)cc3F)cccc21` [Compound P324], the IC50 is below 1000 nM.

For the molecule `CN1C(=O)C(Nc2ccc(Cl)cc2Cl)c2c(C=CC(=O)NS(=O)(=O)c3cc(Cl)c(Cl)s3)cccc21` (stereo not shown) [Compound P252], the IC50 is below 1000 nM.

As to `O=C(COc1cccc2[nH]cc(Sc3ccc4ccccc4c3)c12)NS(=O)(=O)C(F)(F)F` [Compound P243], the half-inhibitory concentration (IC50) is below 1000 nM.

As for `O=C(COc1cccc2oc(=O)n(Cc3ccc4ccccc4c3)c12)NS(=O)(=O)c1cccs1` [Compound P046], the IC50 was below 1000 nM.

For `Cn1cc(C=CC(=O)NS(=O)(=O)c2cc(F)c(F)cc2F)c2c(Oc3cnc4ccccc4n3)cccc21` [Compound P394], the IC50 was below 1000 nM.

As to `O=C(COc1cccc2c1N(Cc1ccc(OC(F)F)cc1)C(=O)CO2)NS(=O)(=O)c1cccs1` [Compound P026], the IC50 lay in the range of 1000 to 10000 nM.

For `Cc1cn(Cc2ccc3c(c2)OCO3)c2c(/C=C/C(=O)NS(=O)(=O)c3cc(Cl)c(Cl)s3)cccc12` [Compound P139], the concentration for half-maximal inhibition (IC50) was below 1000 nM.

For `CCOP(=O)(NC(=O)OCc1cccc2ccn(Cc3ccc4ccccc4c3)c12)OCC` [Compound P044], the IC50 lay within 1000 to 10000 nM.

On to `Cc1cn(CCC(=O)NS(=O)(=O)c2cccc(Cl)c2)c2c(Oc3ccc4ccccc4c3)cc(F)cc12` [Compound P381], for which the IC50 is below 1000 nM.

`Cn1cc(C=CC(=O)NS(=O)(=O)c2cc(F)cc(F)c2)c2c(Oc3ccc4ccccc4c3)cccc21` [Compound P361]: the IC50 was below 1000 nM.

`Cn1cc(C=CC(=O)NS(=O)(=O)c2cc(F)ccc2F)c2c(Oc3ccc4ccccc4c3)cccc21` [Compound P359]: the concentration for half-maximal inhibition (IC50) was below 1000 nM.

On to `CC1(F)C(=O)N(Cc2ccc3ccccc3c2)c2c(C=CC(=O)NS(=O)(=O)c3cccs3)cccc21` (stereo not shown) [Compound P160], for which the concentration for half-maximal inhibition (IC50) was below 1000 nM.

Turning to `Cc1cn(Cc2ccc3ccccc3n2)c2c(/C=C/C(=O)NS(=O)(=O)c3cc(Cl)c(Cl)s3)cccc12` [Compound P146], the IC50 is below 1000 nM.

Take `O=C(C=Cc1cccc2c1N(Cc1ccc(Cl)cc1Cl)C(=O)C2(O)C[N+](=O)[O-])NS(=O)(=O)c1cc(Cl)c(Cl)s1` (stereo not shown) [Compound P134]: the IC50 is below 1000 nM.

With `O=C(C=Cc1cccc2c1C(Cc1ccc3ccccc3c1)C(=O)N2)NS(=O)(=O)c1cc(Cl)c(Cl)s1` (stereo not shown) [Compound P155], the IC50 is below 1000 nM.
